Data from PMC10017042 (Science Advances, 2023).
Values joined by “and” are separate entries in the source; they are usually repeats but may differ in a detail not shown here. Identical values can stand only once. Like-named read-outs stand apart in the source and are kept apart here.

Test system: HIV-1
Settings: for Median fold change in CA US HIV-1 RNA from baseline: pyrimethamine monotherapy excluding LUNA-10 who stopped; for CA US HIVRNA copies/150 ng Total RNA Day 0, 6 hours / CA US HIVRNA copies/150 ng Total RNA Day 14 / CA US HIVRNA copies/150 ng Total RNA Day 42 / CA US HIVRNA copies/150 ng Total RNA Day 0, pretreatment: individual participants, one value each, below LOQ imputed as 16; for CA US HIVRNA copies/150 ng Total RNA Day 0, pretreatment: pretreatment baseline
Experimental: Because of low cell numbers in the baseline sample, LUNA-06 (combination arm, participant stopped at day 7) was excluded from this primary end point analysis.
For quantification of CA US HIV-1 RNA, CD4^+ T cells were isolated from peripheral blood mononuclear cells (PBMCs) by negative selection using EasySep Human CD4^+ T Cell Enrichment Cocktail ([…] Technologies). Isolation of CD4^+ T cells was performed on ice or at 4°C (unless indicated otherwise by the manufacturer). Approximately 1.5 × 10^6 CD4^+ T cells were lysed in triplicate with TRI reagent. Total RNA was isolated by the phenol/chloroform isolation method following the manufacturer’s instructions. A minimum of 150 ng of total RNA was deoxyribonuclease (DNase)–treated following the manufacturer’s instructions (DNase I, Amplification Grade, Invitrogen), and complementary DNA (cDNA) synthesis was performed in duplicate with SuperScript II (Invitrogen) following the manufacturer‘s instructions. Absolute quantification of CA US HIV-1 RNA was performed following a modified version of Pasternak et al. methodology ([72]). Briefly, the first round of nested amplification was performed in a final volume of 25 μl using 10 μl of cDNA, 2.5 μl of 10× PCR buffer (Life Technologies), 1 μl of 50 mM MgCl2 (Life Technologies), 1 μl of 10 mM deoxynucleotide triphosphate (dNTP) (Life Technologies), 0.075 μl of 100 μM US forward primer, 0.075 μl of 100 μM US reverse 1 primer, and 0.2 μl of Platinum Taq polymerase (Life Technologies) at 95°C for 5 min, followed by 15 cycles at 95°C for 30 s, 55°C for 30 s, and 72°C for […]. The second round of amplification was performed in a final volume of 25 μl using 2 μl of preamplified cDNA, 2.5 μl of […] PCR buffer (Life Technologies), 1 μl of 50 mM MgCl2 (Life Technologies), 1 μl of 10 mM dNTPs (Life Technologies), 0.05 μl of 100 μM US forward primer, 0.05 μl of 100 μM US reverse 2 primer, 0.0375 μl of US probe, and 0.2 μl of Platinum Taq polymerase (Life Technologies) at 95°C for 5 min, followed by 45 cycles at 95°C for 30 s and 60°C for 1 min. The list of primers and probe is available in table S9. The absolute number of US copies in the PCR was calculated using a standard curve ranging from 2 to 512 copies of a plasmid containing the full-length HIV-1 genome (pNL4.3.Luc.R-E-). […] The quantity of CA US HIV-1 RNA was expressed as the number of copies per 150 ng of input RNA in reverse transcription.
The measurements related to the end points CA US HIV-1 RNA, MS HIV-1 RNA, plasma HIV-1 RNA, and drug plasma levels were described as median with IQR or full range. […] The fold change difference per study arm from pretreatment CA US HIV-1 RNA levels to the time points 6 hours, day 14, and day 42 after first dosing was calculated by adding up the fold change per individual divided by the total number of measurements available per time point. We analyzed the primary end point by a generalized estimating equation model to evaluate whether any difference in the CA US HIV-1 RNA existed at any time point during the trial in any of the three interventional arms compared to the control arm. An interaction term of time and treatment was included. […] The difference between the observed and expected amount of CA US HIV-1 RNA was calculated, and combination therapy was considered synergistic if the difference and its 95% confidence interval were >0. Because of the number of participants in this pilot, all secondary end points were exploratory.

CCc1nc(N)nc(N)c1-c1ccc(Cl)cc1 [pyrimethamine]
Mean fold change in CA US HIV-1 RNA (6 hours after first dose, arm mean): 2.11 fold | PLWH with increased CA US HIV-1 RNA (responders) (6 hours after the first dose): six of seven | Median fold change CA US HIV-1 RNA (after 6 hours, the two arms exposed to pyrimethamine pooled (with and without VPA)): 1.8 fold | Median fold change in CA US HIV-1 RNA (normalized to day 0, 0 hours) (day 0, t = 0 hours (pretreatment baseline, normalisation point)): 1 fold | Median fold change in CA US HIV-1 RNA (normalized to day 0, 0 hours) (day 0, t = 6 hours after first dose, arm median, PLWH on cART, oral PYR 200 mg day 1 then 100 mg once daily, VPA 30 mg/kg per day): 2.1073 fold | Median fold change in CA US HIV-1 RNA (normalized to day 0, 0 hours) (day 14 (end of treatment), arm median, PLWH on cART): 1.9 fold | Median fold change in CA US HIV-1 RNA (normalized to day 0, 0 hours) (day 14 (end of treatment), arm median, PLWH on cART, listed as Pyrimethamine): 1.9129 fold | Median fold change in CA US HIV-1 RNA from baseline (day 14): 1.8 fold | Median fold change in CA US HIV-1 RNA (normalized to day 0, 0 hours) (day 42 (28 days after end of treatment), arm median, PLWH on cART): 1.7 fold | Median fold change in CA US HIV-1 RNA (normalized to day 0, 0 hours) (day 42 (28 days after end of treatment), arm median, PLWH on cART, listed as Pyrimethamine): 1.6775 fold | Median fold change in CA US HIV-1 RNA from baseline (day 42): 1.6 fold | CA US HIVRNA copies/150 ng Total RNA Day 0, 6 hours (listed as PYR): 125,01 copies/150 ng Total RNA and 126,50 copies/150 ng Total RNA and 51,31 copies/150 ng Total RNA and 94,04 copies/150 ng Total RNA and 39,82 copies/150 ng Total RNA and 55,52 copies/150 ng Total RNA and 96,01 copies/150 ng Total RNA | CA US HIVRNA copies/150 ng Total RNA Day 14 (listed as PYR): 114,91 copies/150 ng Total RNA and 111,02 copies/150 ng Total RNA and 74,67 copies/150 ng Total RNA and 54,10 copies/150 ng Total RNA and 42,33 copies/150 ng Total RNA and 62,36 copies/150 ng Total RNA and 111,26 copies/150 ng Total RNA | CA US HIVRNA copies/150 ng Total RNA Day 42 (listed as PYR): 85,80 copies/150 ng Total RNA and 54,17 copies/150 ng Total RNA and 82,71 copies/150 ng Total RNA and 69,81 copies/150 ng Total RNA and 29,28 copies/150 ng Total RNA and 101,16 copies/150 ng Total RNA and 84,39 copies/150 ng Total RNA | CA US HIVRNA copies/150 ng Total RNA Day 0, pretreatment (listed as PYR): 32,60 copies/150 ng Total RNA and 68,92 copies/150 ng Total RNA and 24,35 copies/150 ng Total RNA and 49,43 copies/150 ng Total RNA and 16,00 copies/150 ng Total RNA and 79,98 copies/150 ng Total RNA and 51,15 copies/150 ng Total RNA

CCCC(CCC)C(=O)O [valproic acid]
Median CA US HIV-1 RNA compared to pretreatment levels (any time point): did not have significantly increased | CA US HIVRNA copies/150 ng Total RNA Day 0, 6 hours (listed as VPA): 42,74 copies/150 ng Total RNA and 53,04 copies/150 ng Total RNA and 19,23 copies/150 ng Total RNA and 101,51 copies/150 ng Total RNA and 51,59 copies/150 ng Total RNA and 10,16 copies/150 ng Total RNA and 16,00 copies/150 ng Total RNA | CA US HIVRNA copies/150 ng Total RNA Day 14 (listed as VPA): 28,40 copies/150 ng Total RNA and 97,80 copies/150 ng Total RNA and 16,00 copies/150 ng Total RNA and 47,89 copies/150 ng Total RNA and 161,79 copies/150 ng Total RNA and 18,41 copies/150 ng Total RNA and 18,82 copies/150 ng Total RNA | CA US HIVRNA copies/150 ng Total RNA Day 42 (listed as VPA): 49,74 copies/150 ng Total RNA and 59,03 copies/150 ng Total RNA and 16,00 copies/150 ng Total RNA and 52,98 copies/150 ng Total RNA and 59,33 copies/150 ng Total RNA and 22,83 copies/150 ng Total RNA | CA US HIVRNA copies/150 ng Total RNA Day 0, pretreatment (listed as VPA): 95,16 copies/150 ng Total RNA and 39,10 copies/150 ng Total RNA and 16,00 copies/150 ng Total RNA and 76,70 copies/150 ng Total RNA and 12,93 copies/150 ng Total RNA and 22,90 copies/150 ng Total RNA
